These results are taken from US20170081338A1, “SUBSTITUTED HETEROARYL COMPOUNDS AND METHODS OF USE” (Sunshine Lake Pharma Co., Ltd., priority 2015, published 2017).

One may read the CLint scaled as a measure of how fast metabolising enzymes remove a compound, apart from limits set by blood flow. For orientation: IC50 means the concentration that inhibits the measured activity by half. The low end stands for inhibition by little substance, the high end for a need for much substance. What is called AUC(0-t) is the area under the concentration-time curve up to a stated or last time point.

A short description of data set [1]: Compound stability in human liver microsomes. The format is in vitro ADME. The following applies: pH 7.4; for half-life at 5 μM: human liver microsomes 0.5 mg protein/mL, compound 5 μM, NADPH, 37° C., read-out: Human T1/2; for CLint scaled at 5 μM: human liver microsomes, in vivo CLint extrapolated. Here is the method:
(§1) Human or rat liver microsomes incubations were conducted in duplicate in polypropylene tubes. The typical incubation mixtures consisted of human or rat liver microsomes (0.5 mg protein/mL), compounds of interest (5 μM) and NADPH (1.0 mM) in a total volume of 200 μL potassium phosphate buffer (PBS, 100 mM, pH 7.4). Compounds were dissolved in DMSO and diluted with PBS such that the final concentration of DMSO was 0.05%. The enzymatic reactions were commenced with the addition of protein after a 3-min preincubation and incubated in a water bath open to the air at 37° C. Reactions were terminated at various time points (0, 5, 10, 15, 30, 60 min) by adding equal volume of ice-cold acetonitrile. The samples were stored at −80° C. until LC/MS/MS assays.
(§2) The concentrations of compounds in the incubation mixtures of human or rat liver microsomes were determined by a LC/MS/MS method. The ranges of the linearity in the concentration range were determined for each tested compounds.
(§3) A parallel incubation was performed using denatured microsomes as the negative control, and reactions were terminated at various time points (0, 15, 60 min) after incubation at 37° C.
(§4) Dextromethorphan (70 μM) was selected as the positive control, and reactions were terminated at various time points (0, 5, 10, 15, 30, 60 min) after incubation at 37° C. Both positive and negative control samples were included in each assay to ensure the integrity of the microsomal incubation system.
(§5) The concentrations of compounds in human or rat liver microsome incubations were plotted as a percentage of the relevant zero time point control for each reaction. The in vivo CLint were extrapolated (ref.: Naritomi, Y.; Terashita, S.; Kimura, S.; Suzuki, A.; Kagayama, A.; and Sugiyama, Y.; Prediction of human hepatic clearance from in vivo animal experiments and in vitro metabolic studies with liver microsomes from animals and humans. Drug Metab. Dispos., 2001, 29: 1316-1324).

Data set [2] is described as follows: Compound stability in rat liver microsomes. The data set is classed as in vitro ADME. Particulars: pH 7.4; for half-life at 5 μM: rat liver microsomes 0.5 mg protein/mL, compound 5 μM, NADPH, 37° C., read-out: Rat T1/2; for CLint scaled at 5 μM: rat liver microsomes, in vivo CLint extrapolated. Here is the method:
as §1, §2, §3, §4, §5

In data set [3] the target is T1, Aurora-A (h) (Homo sapiens, UniProt O14965).
T1 construct: purchased Millipore UK Ltd (contract assay service)
T1 sequence (O14965 1-403): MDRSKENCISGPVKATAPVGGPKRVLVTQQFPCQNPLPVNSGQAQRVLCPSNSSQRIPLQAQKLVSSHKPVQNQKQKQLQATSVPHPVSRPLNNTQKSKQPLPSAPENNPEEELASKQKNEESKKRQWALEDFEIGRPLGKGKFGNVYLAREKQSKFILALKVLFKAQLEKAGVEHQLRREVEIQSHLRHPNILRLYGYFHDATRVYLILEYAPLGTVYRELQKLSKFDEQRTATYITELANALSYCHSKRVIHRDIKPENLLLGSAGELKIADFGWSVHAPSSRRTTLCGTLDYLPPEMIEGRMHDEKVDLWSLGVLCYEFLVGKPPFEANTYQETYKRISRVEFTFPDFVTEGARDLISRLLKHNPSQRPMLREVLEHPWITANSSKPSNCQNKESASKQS
In words: Aurora-A (h) kinase assay. The data set is classed as biochemical. How it is done: The above assay procedure can be used to determine the IC50 for inhibition and/or the inhibition constant, Ki. The IC50 is defined as the concentration of compound required to reduce the enzyme activity by 50% under the condition of the assay. The IC50 value is estimated by preparing a 10 point curve using a 1/2 log dilution series (for example, a typical curve may be prepared using the following compound concentrations: 3 μM, 1 μM, 0.3 μM, 0.1 μM, 0.03 μM, 0.01 μM, 0.003 μM, 0.001 μM, 0.0003 μM and 0 μM).
Aurora-A (h) is incubated with 8 mM MOPS pH 7.0, 0.2 mM EDTA, 200 μM LRRASLG (Kemptide), 10 mM MgAcetate and [γ-^33P-ATP] (specific activity approx. 500 cpm/pmol, concentration as required). The reaction is initiated by the addition of the MgATP mix. After incubation for 40 minutes at room temperature, the reaction is stopped by the addition of 3% phosphoric acid solution. 10 μL of the reaction is then spotted onto a P30 filtermat and washed three times for 5 minutes in 75 mM phosphoric acid and once in methanol prior to drying and scintillation counting.
The kinase assays described herein were performed at Millipore UK Ltd, Dundee Technology Park, Dundee DD2 1SW, UK.

A short description of data set [4]: Pharmacokinetics after intravenous and oral administration in rats. The data set is classed as in vivo. Particulars: for Clearance (CL) after iv dosing / AUC(0-t) / half-life / Vd: dose 1 mg/kg, iv dosing; for F: oral bioavailability; for AUC(0-t) / half-life / Vd: rat, plasma; for Vd: read-out: Vss. Here is the method: The LC/MS/MS system used in the analysis consists of an Agilent 1200 Series vacuum degasser, binary pump, well-plate autosampler, thermostatted column compartment, the Agilent G6430 Triple Quadrupole Mass Spectrometer with an electrosprayionization (ESI) source. Quantitative analysis was carried out using MRM mode. The parameters for MRM transitions are in the Table A.
An Agilent XDB-C18, 2.1×30 mm, 3.5 μM column was used for the analysis. 5 μL of the samples were injected. Analysis condition: The mobile phase was 0.1% formic acid in water (A) and 0.1% formic acid in methanol (B). The flow rate was 0.4 mL/min. And the gradient of Mobile phase was in the Table B.
Alternatively, an Agilent 6330 series LC/MS/MS spectrometer equipped with G1312A binary pumps, a G1367A autosampler and a G1314C UV detector were used in the analysis. An ESI source was used on the LC/MS/MS spectrometer. The analysis was done in positive ion mode as appropriate and the MRM transition for each analyte was optimized using standard solution. A Capcell MP-C18 100×4.6 mm I.D., […] column (Phenomenex, Torrance, Calif., USA) was used during the analysis. The mobile phase was 5 mM ammonia acetate, 0.1% MeOH in water (A): 5 mM ammonia acetate, 0.1% MeOH in acetonitrile (B) (70/30, v/v). The flow rate was 0.6 mL/min. Column was maintained at ambient temperature. 20 μL of the samples were injected.
The compounds disclosed herein are assessed in pharmacokinetic studies in mice, rats, dogs or monkeys. The compounds are administered as a water solution, 2% HPMC+1% TWEEN®80 in water solution, 5% DMSO+5% solutol in saline, 4% MC suspension or capsule. For the intravenous administration, the animals are generally given at 0.5, 1 or 2 mg/kg dose. For the oral (p.o.) dosing, mice and rats are generally given 0.5, 1, 5 or 10 mg/kg dose, and dogs and monkeys are generally given 10 mg/kg dose. The blood samples (0.3 mL) are drawn at 0.25, 0.5, 1.0, 2.0, 3.0, 4.0, 6.0, 8.0, 12 and 24 h time points or 0.083, 0.25, 0.5, 1.0, 2.0, 4.0, 6.0, 8.0 and 24 h time points and centrifuged at 3,000 or 4000 rpm for 2 to 10 min. The plasma solutions are collected, and stored at −20° C. or −70° C. until analyzed by LC/MS/MS as described above.

For the molecule `Cn1cc(Nc2ncc(Cl)c(N[C@@H]3COC4C3OC[C@@H]4Nc3ccc(C#N)nn3)n2)cn1` (stereo partly drawn) [Ex. 3, 6-(((3S,6R)-6-((5-chloro-2-((1-methyl-1H-pyrazol-4-yl)amino)pyrimidin-4-yl)amino)hexahydrofuro[3,2-b]furan-3-yl)amino)pyridazine-3-carbonitrile], in data set [1], the half-life at 5 μM came out at 2.36 h and the CLint scaled at 5 μM is 12.3 mL/min/kg. In data set [2], the half-life at 5 μM came to 0.367 h and the CLint scaled at 5 μM was 113 mL/min/kg. Moreover, the IC50 in data set [3] amounted to 45 nM.

As for `Cn1cc(Nc2ncc(Cl)c(N[C@@H]3COC4C3OC[C@@H]4NS(=O)(=O)C3CC3)n2)cn1` (stereo partly drawn) [Ex. 4, N-((3S,6R)-6-((5-chloro-2-((1-methyl-1H-pyrazol-4-yl)amino)pyrimidin-4-yl)amino)hexahydrofuro[3,2-b]furan-3-yl)cyclopropanesulfonamide], in data set [1], the half-life at 5 μM stood at 9.38 h and the CLint scaled at 5 μM was 3.09 mL/min/kg. In addition, in data set [2], the half-life at 5 μM was 1.72 h and the CLint scaled at 5 μM was 24 mL/min/kg. In data set [4], the “Clearance (CL) after iv dosing” value is 23.7 mL/min/kg, the F is 51.7%, the AUC(0-t) stood at 712 ng·h/mL and the half-life was 0.35 h. Besides, the Vd in data set [4] was 0.69 L/kg. The IC50 in data set [3] came to 53 nM.

For the molecule `Cn1cc(Nc2ncc(Cl)c(N[C@H]3COC4C3OC[C@H]4NS(=O)(=O)CC(F)(F)F)n2)cn1` (stereo partly drawn) [Ex. 5, N-((3R,6S)-6-((5-chloro-2-((1-methyl-1H-pyrazol-4-yl)amino)pyrimidin-4-yl)amino)hexahydrofuro[3,2-b]furan-3-yl)-2,2,2-trifluoroethanesulfonamide], in data set [1], the half-life at 5 μM is 4.05 h and the intrinsic metabolic clearance (CLint scaled) at 5 μM was 7.16 mL/min/kg. Further, in data set [2], the half-life at 5 μM amounted to 1.38 h and the CLint scaled at 5 μM is 30 mL/min/kg. Also, in data set [4], the “Clearance (CL) after iv dosing” value worked out at 38.8 mL/min/kg, the F is 44.0%, the AUC(0-t) was 420 ng·h/mL and the half-life was 1.8 h. Further, the Vd in data set [4] stood at 2.01 L/kg. In data set [3], this molecule displayed an IC50 of 1000 nM.

Consider `Cn1cc(Nc2ncc(Cl)c(N[C@H]3COC4C3OC[C@H]4NS(=O)(=O)N3CCCC3)n2)cn1` (stereo partly drawn) [Ex. 6, N-((3R,6S)-6-((5-chloro-2-((1-methyl-1H-pyrazol-4-yl)amino)pyrimidin-4-yl)amino)hexahydrofuro[3,2-b]furan-3-yl)pyrrolidine-1-sulfonamide], for which, in data set [1], the half-life at 5 μM turned out to be 0.622 h and the intrinsic metabolic clearance (CLint scaled) at 5 μM was 46.5 mL/min/kg. Further, in data set [2], the half-life at 5 μM worked out at 0.629 h and the intrinsic clearance (CLint scaled) at 5 μM is 65.8 mL/min/kg. Further, in data set [4], the “Clearance (CL) after iv dosing” value is 53.8 mL/min/kg, the F was determined as 44.3%, the AUC(0-t) is 309 ng·h/mL and the half-life is 0.58 h. In data set [4], the Vd was 1.54 L/kg. For the same molecule, in data set [3], the IC50 was 984 nM.

As to `Cn1cc(Nc2ncc(Cl)c(N[C@@H]3COC4C3OC[C@@H]4NS(=O)(=O)CC3CCOC3)n2)cn1` (stereo partly drawn) [Ex. 16, N-((3S,6R)-6-((5-chloro-2-((1-methyl-1H-pyrazol-4-yl)amino)pyrimidin-4-yl)amino)hexahydrofuro[3,2-b]furan-3-yl)-1-(tetrahydrofuran-3-yl)methanesulfonamide], the figures for the half-life at 5 μM in data set [1] and in data set [2] were 0.652 h and 1.77 h, respectively. For the same molecule, the results for the CLint scaled at 5 μM in data set [1] and in data set [2] were 44.4 mL/min/kg and 23.4 mL/min/kg, respectively. In data set [3], this molecule gave an IC50 of 17 nM.

Turning to `Cn1cc(Nc2ncc(Cl)c(N[C@@H]3COC4C3OC[C@@H]4NS(=O)(=O)Cc3ccccc3)n2)cn1` (stereo partly drawn) [Ex. 19, N-((3S,6R)-6-((5-chloro-2-((1-methyl-1H-pyrazol-4-yl)amino)pyrimidin-4-yl)amino)hexahydrofuro[3,2-b]furan-3-yl)-1-phenylmethanesulfonamide], in data set [4], the “Clearance (CL) after iv dosing” value worked out at 44.8 mL/min/kg, the F is listed as 28.2%, the AUC(0-t) was found to be 374 ng·h/mL and the half-life is 0.88 h. For the same molecule, the Vd in data set [4] came out at 2.37 L/kg. In data set [3], the midpoint of inhibition, the IC50, lay at 10 nM.

In data set [3], `Cn1cc(Nc2ncc(Cl)c(N[C@@H]3COC4C3OC[C@@H]4NS(=O)(=O)NC3CCOC3)n2)cn1` (stereo partly drawn) [Ex. 29, 5-chloro-N-(1-methyl-1H-pyrazol-4-yl)-4-(((3R,6S)-6-((N-(tetrahydrofuran-3-yl)sulfamoyl)amino)hexahydrofuro[3,2-b]furan-3-yl)amino)pyrimidin-2-amine] had an IC50 of 16 nM.

With `CC(C)CS(=O)(=O)N[C@@H]1COC2C1OC[C@H]2Nc1nc(Nc2cnn(C)c2)ncc1Cl` (stereo partly drawn) [Ex. 32, N-((3R,6R)-6-((5-chloro-2-((1-methyl-1H-pyrazol-4-yl)amino)pyrimidin-4-yl)amino)hexahydrofuro[3,2-b]furan-3-yl)-2-methylpropane-1-sulfonamide], in data set [3], the IC50 is 478 nM.

The molecule `Cn1cc(Nc2ncc(Cl)c(N[C@@H]3COC4C3OC[C@@H]4NS(=O)(=O)CC(F)F)n2)cn1` (stereo partly drawn) [Ex. 36, N-((3S,6R)-6-((5-chloro-2-((1-methyl-1H-pyrazol-4-yl)amino)pyrimidin-4-yl)amino)hexahydrofuro[3,2-b]furan-3-yl)-2,2-difluoroethanesulfonamide] registered an IC50 in data set [3] of 51 nM. This IC50 is about 9.4-fold lower than that of the molecule before.
